Measured values: ChEMBL document CHEMBL4806957, “Cdk8/cdk19 selective inhibitors and their use in anti-metastatic and chemopreventive methods for cancer” (2019)
pIC50, pKd: −log10 of the molar value. Each block holds one compound with its values, some of them ahead of it. The source made the active and inactive calls. The rule behind the calls is not given here.

How the values were obtained:
[1] = Solubility of compound in water at < 50 mM after 30 mins; assay type: physicochemical; settings: buffer, 0.5 h
[2] = Solubility of compound in water at 10 mM after 30 mins; assay type: physicochemical; settings: buffer, 0.5 h, 10000 µM
[3] = Solubility of compound in water at 50 mM after 30 mins; assay type: physicochemical; settings: buffer, 0.5 h, 50000 µM
MDA-MB-468 [4] = assay: Antitumor activity against human MDA-MB-468 cells xenografted in nude mouse assessed as invasive tumor growth at 4 mg/kg, ip administered daily for 30 days by H and E staining based histological analysis; assay type: functional, organism-based; settings: time 30.0 day
MDA-MB-468 [5] = assay: Antitumor activity against human MDA-MB-468 cells xenografted in nude mouse assessed as reduction in tumor growth at 4 mg/kg, ip administered daily for 30 days by caliper method; assay type: functional, organism-based; settings: time 30.0 day
[6] = Toxicity in mouse xenografted with human MDA-MB-231 cells assessed as reduction in body weight at 1 mg/kg administered as single dose; assay type: organism-based; parameters: scale not given: the % may be the effect or the level left; settings: in vivo
MDA-MB-231 [7] = assay: Antitumor activity against human MDA-MB-231 cells xenografted in SCID mouse assessed as reduction in tumor growth at 1 mg/kg, ip administered as single dose; assay type: functional, organism-based
A549 = assay: Antitumor activity against human A549 cells xenografted in CB-17 SCID mouse assessed as reduction in tumor growth pretreated with compound at 40 mg/kg, ip administered 5 daily dose followed by tumor injection and monitored twice a week starting from 7 days after post tumor injection to 24 days by caliper method; assay type: functional, organism-based; settings: time 24.0 day
MDA-MB-468 [8] = assay: Antitumor activity against human MDA-MB-468 cells xenografted in mouse assessed as reduction in tumor growth at 40 mg/kg, ip by caliper method; assay type: functional, organism-based
MDA-MB-468 [9] = assay: Antitumor activity against human MDA-MB-468 cells xenografted in nude mouse assessed as non-invasive tumor growth at 40 mg/kg, ip administered daily for 30 days by H and E staining based histological analysis; assay type: functional, organism-based; settings: time 30.0 day
MDA-MB-468 [10] = assay: Antitumor activity against human MDA-MB-468 cells xenografted in nude mouse assessed as reduction in tumor growth at 40 mg/kg, ip administered daily for 30 days in presence of doxorubicin by caliper method; assay type: functional, organism-based; settings: time 30.0 day
MDA-MB-157 = assay: Growth inhibition of human MDA-MB-157 cells after 5 days by MTT assay; assay type: functional, cell-based; settings: dose 0.078-10 µM, time 5.0 day
[11] = Toxicity in BALB/c mouse assessed as decrease in thymus weight at 40 mg/kg, ip administered with 5 daily doses and 2 days off and another 5 daily dosing schedule for 12 days; assay type: organism-based; settings: in vivo, 288 h, time 12 day
MDA-MB-468 [12] = assay: Antitumor activity against human MDA-MB-468 cells xenografted in nude mouse assessed as slower appearance of palpable tumor pretreated with compound at 25 mg/kg, ip administered 5 daily dose followed by tumor injection and monitored every day; assay type: functional, organism-based
[13] = Toxicity in BALB/c mouse assessed as decrease in brain weight at 40 mg/kg, ip administered with 5 daily doses and 2 days off and another 5 daily dosing schedule for 12 days; assay type: organism-based; settings: in vivo, 288 h, time 12 day
MDA-MB-468 [14] = assay: Antitumor activity against human MDA-MB-468 cells xenografted in nude mouse assessed as reduction in tumor growth at 40 mg/kg, ip administered daily for 30 days by caliper method; assay type: functional, organism-based; settings: time 30.0 day
[15] = Toxicity in BALB/c mouse assessed as decrease in lung weight at 40 mg/kg, ip administered with 5 daily doses and 2 days off and another 5 daily dosing schedule for 12 days; assay type: organism-based; settings: in vivo, 288 h, time 12 day
MDA-MB-231 [16] = assay: Antitumor activity against human MDA-MB-231 cells xenografted in SCID mouse assessed as reduction in tumor growth at 40 mg/kg, ip administered as 5 daily doses; assay type: functional, organism-based
[17] = biological target: T1, Cyclin-dependent kinase 8 (Homo sapiens, UniProt P49336); assay: Inhibition of human CDK8 (M1 to T360 residues) expressed in bacterial expression system at 2000 nM by KINOMEscan assay relative to control
T1 sequence (P49336 whole entry, the tested form may be a part): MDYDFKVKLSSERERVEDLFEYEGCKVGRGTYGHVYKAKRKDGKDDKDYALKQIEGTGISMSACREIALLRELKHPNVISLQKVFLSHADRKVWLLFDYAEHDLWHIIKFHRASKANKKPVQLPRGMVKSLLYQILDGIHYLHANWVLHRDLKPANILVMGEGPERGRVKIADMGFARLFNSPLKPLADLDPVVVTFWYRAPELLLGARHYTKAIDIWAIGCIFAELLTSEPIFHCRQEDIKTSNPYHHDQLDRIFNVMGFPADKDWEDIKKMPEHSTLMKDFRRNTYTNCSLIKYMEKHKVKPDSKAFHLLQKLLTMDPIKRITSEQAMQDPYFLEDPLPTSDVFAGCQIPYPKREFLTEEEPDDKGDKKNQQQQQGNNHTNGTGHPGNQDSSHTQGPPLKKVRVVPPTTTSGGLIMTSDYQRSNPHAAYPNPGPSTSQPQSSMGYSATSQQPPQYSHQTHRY

4T1 = assay: Growth inhibition of mouse 4T1 cells at 0.078 to 10 uM after 5 days by MTT assay; assay type: functional, cell-based; settings: dose 0.078-10 µM, time 5.0 day
[18] = AUC in rat at 40 mg/kg, ip; assay type: ADME, organism-based; parameters: dose 40 mg/kg; settings: in vivo
[19] = Toxicity in BALB/c mouse assessed as decrease in liver weight at 40 mg/kg, ip administered with 5 daily doses and 2 days off and another 5 daily dosing schedule for 12 days; assay type: organism-based; settings: in vivo, 288 h, time 12 day
MDA-MB-231 [20] = assay: Additive antitumor activity against human MDA-MB-231 cells xenografted in SCID mouse assessed as reduction in tumor growth at 40 mg/kg, ip administered as 5 daily doses in presence of doxorubicin; assay type: functional, organism-based
[21] = biological target: Cyclin-dependent kinase 19 (Homo sapiens) (UniProt Q9BWU1); assay: Inhibition of human […] (M1 to N360 residues) expressed in bacterial expression system at 2000 nM by KINOMEscan assay relative to control
Chain of Cyclin-dependent kinase 19 (Homo sapiens) (Q9BWU1 whole entry, the tested form may be a part): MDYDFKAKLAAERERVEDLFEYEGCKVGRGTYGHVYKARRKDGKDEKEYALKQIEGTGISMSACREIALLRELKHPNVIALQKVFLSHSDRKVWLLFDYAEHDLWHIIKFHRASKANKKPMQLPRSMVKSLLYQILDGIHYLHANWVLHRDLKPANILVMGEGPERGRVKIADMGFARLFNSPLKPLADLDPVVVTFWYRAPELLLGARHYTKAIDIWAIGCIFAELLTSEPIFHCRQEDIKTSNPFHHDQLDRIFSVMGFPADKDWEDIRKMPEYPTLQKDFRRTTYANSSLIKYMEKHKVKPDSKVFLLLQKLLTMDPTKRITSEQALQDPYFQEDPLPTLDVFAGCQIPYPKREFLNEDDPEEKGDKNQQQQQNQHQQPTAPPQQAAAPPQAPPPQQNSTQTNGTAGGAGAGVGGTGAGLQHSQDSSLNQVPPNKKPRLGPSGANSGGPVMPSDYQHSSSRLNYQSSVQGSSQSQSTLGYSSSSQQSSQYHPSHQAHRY

[22] = biological target: Cyclin-dependent kinase 9 (Homo sapiens, UniProt P50750); assay: Inhibition of CDK9 (unknown origin)
Chain of Cyclin-dependent kinase 9 (P50750 whole entry): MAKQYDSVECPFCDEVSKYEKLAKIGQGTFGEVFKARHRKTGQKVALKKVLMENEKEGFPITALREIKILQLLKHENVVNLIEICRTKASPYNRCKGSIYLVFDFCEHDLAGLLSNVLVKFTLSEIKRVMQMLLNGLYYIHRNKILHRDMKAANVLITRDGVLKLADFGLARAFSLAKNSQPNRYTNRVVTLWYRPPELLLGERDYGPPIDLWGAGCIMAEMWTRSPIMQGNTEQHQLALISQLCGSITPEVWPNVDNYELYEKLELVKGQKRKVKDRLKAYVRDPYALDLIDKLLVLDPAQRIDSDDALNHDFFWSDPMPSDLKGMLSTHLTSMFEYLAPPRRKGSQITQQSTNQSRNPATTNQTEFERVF

[23] = Toxicity in BALB/c mouse assessed as body weight gain at 40 mg/kg, ip administered with 5 daily doses and 2 days off and another 5 daily dosing schedule for 12 days; assay type: organism-based; settings: in vivo, 288 h, time 12 day
[24] = Toxicity in BALB/c mouse assessed as decrease in spleen weight at 40 mg/kg, ip administered with 5 daily doses and 2 days off and another 5 daily dosing schedule for 12 days; assay type: organism-based; parameters: scale not given: the % may be the effect or the level left; settings: in vivo, 288 h, time 12 day
[25] = Toxicity in mouse xenografted with human MDA-MB-231 cells assessed as reduction in body weight at 40 mg/kg administered as 5 daily doses; assay type: organism-based; settings: in vivo
[26] = biological target: T1, Cyclin-dependent kinase 8; assay: Inhibition of CDK8 in human HT1080 cells assessed as inhibition of IPTG-inducible p21 induced CMV-GFP expression by Hoechst 33342 staining-based fluorescence assay; assay type: cell-based; settings: HT-1080
[27] = Plasma concentration in mouse at 100 mg/kg administered via gavage; assay type: ADME, organism-based; settings: in vivo, po
MDA-MB-468 [28] = assay: Antitumor activity against human MDA-MB-468 cells xenografted in mouse assessed as reduction in tumor growth pretreated with compound at 40 mg/kg, ip administered for 3 days followed by tumor injection by caliper method; assay type: functional, organism-based; settings: time 3.0 day
[29] = Toxicity in BALB/c mouse assessed as decrease in lymphocytes count at 40 mg/kg, ip administered with 5 daily doses and 2 days off and another 5 daily dosing schedule for 12 days; assay type: organism-based; parameters: scale not given: the % may be the effect or the level left; settings: in vivo, 288 h, time 12 day
MDA-MB-468 [30] = assay: Antitumor activity against human MDA-MB-468 cells xenografted in nude mouse assessed as non-invasive tumor growth at 40 mg/kg, ip administered daily for 30 days in presence of doxorubicin by H and E staining based histological analysis; assay type: functional, organism-based; settings: time 30.0 day
[31] = biological target: T1, Cyclin-dependent kinase 8; assay: Inhibition of CDK8 (unknown origin) by Pro-Qinase assay
[32] = biological target: T2, Catenin beta-1 (Homo sapiens) (UniProt P35222); assay: Inhibition of beta-catenin activity in human HCT116 cells assessed as reduction in TOPFlash promoter mediated luciferase expression; assay type: cell-based; settings: HCT-116, dose […]
T2 sequence (whole entry): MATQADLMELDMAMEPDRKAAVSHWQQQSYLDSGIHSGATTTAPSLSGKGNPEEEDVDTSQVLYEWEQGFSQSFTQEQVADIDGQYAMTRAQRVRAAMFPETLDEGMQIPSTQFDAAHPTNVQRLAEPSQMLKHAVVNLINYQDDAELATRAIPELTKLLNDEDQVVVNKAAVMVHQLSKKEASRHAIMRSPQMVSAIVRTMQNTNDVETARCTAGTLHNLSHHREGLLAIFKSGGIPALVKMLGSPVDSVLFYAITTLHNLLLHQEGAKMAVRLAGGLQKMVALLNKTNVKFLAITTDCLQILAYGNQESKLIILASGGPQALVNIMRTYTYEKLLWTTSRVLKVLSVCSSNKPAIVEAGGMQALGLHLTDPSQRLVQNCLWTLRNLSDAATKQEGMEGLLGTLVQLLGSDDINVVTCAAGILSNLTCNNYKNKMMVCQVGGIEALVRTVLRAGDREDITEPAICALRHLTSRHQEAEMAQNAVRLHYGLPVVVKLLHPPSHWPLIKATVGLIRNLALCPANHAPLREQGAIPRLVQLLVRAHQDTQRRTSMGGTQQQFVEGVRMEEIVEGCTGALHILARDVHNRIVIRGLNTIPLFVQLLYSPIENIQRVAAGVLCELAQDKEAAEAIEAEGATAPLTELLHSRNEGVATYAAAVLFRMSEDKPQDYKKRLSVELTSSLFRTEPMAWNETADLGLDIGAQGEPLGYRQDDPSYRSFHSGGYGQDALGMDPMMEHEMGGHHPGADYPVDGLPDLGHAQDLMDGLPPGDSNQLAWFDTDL

MDA-MB-468 [33] = assay: Growth inhibition of human MDA-MB-468 cells after 5 days by MTT assay; assay type: functional, cell-based; settings: dose 0.078-10 µM, time 5.0 day
[34] = biological target: T1, Cyclin-dependent kinase 8; assay: Inhibition of CDK8 (unknown origin)
[35] = Toxicity in BALB/c mouse assessed as decrease in kidney weight at 40 mg/kg, ip administered with 5 daily doses and 2 days off and another 5 daily dosing schedule for 12 days; assay type: organism-based; settings: in vivo, 288 h, time 12 day

Compound: CN1CCN(C(=O)c2cc(CNc3ncnc4ccc(C#N)cc34)ccc2Cl)CC1
solubility [1]: Soluble

Compound: N#Cc1ccc2ncnc(NCCc3ccc(C(=O)N4CCC(N)C4)cc3)c2c1 (stereo not given)
solubility [2]: Soluble

Compound: N#Cc1ccc2ncnc(NCc3ccc(Cl)c(C(=O)N4CCOCC4)c3)c2c1
solubility [3]: Soluble

Compound: CN(C)C(=O)c1ccc(CCNc2ncnc3ccc(C#N)cc23)cc1
solubility [2]: Soluble

Compound: N#Cc1ccc2ncnc(NCCc3ccc(C(=O)N4CCOCC4)cc3)c2c1
solubility [2]: Soluble

Compound: CN1CCN(C(=O)c2ccc(CCNc3ncnc4ccc(C#N)cc34)cc2)CC1
solubility [2]: Soluble

Compound: COc1cccc2c1C(=O)c1c(O)c3c(c(O)c1C2=O)C[C@@](O)(C(=O)CO)C[C@@H]3O[C@H]1C[C@H](N)[C@H](O)[C@H](C)O1 [DOXORUBICIN]
Activity (MDA-MB-468 [4]): Active
Activity (MDA-MB-468 [5]): Active
Activity [6]: 15%
Activity (MDA-MB-231 [7]): Active

Second part, led by results:

solubility [2]: Soluble
Compound: CN(C)CCNC(=O)c1ccc(CCNc2ncnc3ccc(C#N)cc23)cc1

solubility [2]: Soluble
Compound: COCCNC(=O)c1ccc(CCNc2ncnc3ccc(C#N)cc23)cc1

solubility [1]: Soluble
Compound: N#Cc1ccc2ncnc(NCCc3ccc4cc(C(=O)N5CCOCC5)ccc4c3)c2c1

solubility [3]: Soluble
inhibition [17]: 97.8%
AUC [18]: 14100 ng·h/mL
inhibition [21]: 98.6%
Kd [22]: Not Active
inhibition [26]: Active
concentration [27]: 50 µM
pIC50 [31]: 7.62
inhibition [32]: Dose-Dependent Effect
pKd [34]: 6.85
Compound: CN1CCN(C(=O)c2ccc3cc(CCNc4ncnc5ccc(C#N)cc45)ccc3c2)CC1 [SENEXIN B]
Activity (A549): Active
Activity (MDA-MB-468 [8]): Active
Activity (MDA-MB-468 [9]): Active
Activity (MDA-MB-468 [10]): Active
growth inhibition (GI) (MDA-MB-157): Dose-Dependent Effect
Activity [11]: Non-Toxic
Activity (MDA-MB-468 [12]): Active
Activity [13]: Non-Toxic
Activity (MDA-MB-468 [14]): Active
Activity [15]: Non-Toxic
Activity (MDA-MB-231 [16]): Active
growth inhibition (GI) (4T1): inactive
Activity [19]: Non-Toxic
Activity (MDA-MB-231 [20]): Active
Activity [23]: Non-Toxic
Activity [24]: 20%
Activity [25]: Non-Toxic
Activity (MDA-MB-468 [28]): Active
Activity [29]: 25%
Activity (MDA-MB-468 [30]): Active
growth inhibition (GI) (MDA-MB-468 [33]): Dose-Dependent Effect
Activity [35]: Non-Toxic
